The source of these data is US20140221385A1, “COMBINATIONS OF SEROTONIN RECEPTOR AGONISTS FOR TREATMENT OF MOVEMENT DISORDERS” (CONCIT PHARMA APS, priority 2011, published 2014).

The subject of series [1] is 6-OHDA unilateral lesion model rats. The series can be described thus: Forepaw adjusting steps (FAS) test, 6-OHDA induced akinesia. Type of series: in vivo, rat. Particulars: for average percentage of adjusting steps (impaired paw to intact paw): L-DOPA 3 mg/kg with 15 mg/kg benserazide s.c. 60 min pretest.
In the next series the test system is Parkinson's disease. The settings on record: cited from earlier work.
In series [2] the test system is unilaterally 6-OHDA-lesioned rats. The series can be described thus: L-DOPA induced AIMs and drugs screening test in the 6-OHDA rat model. The format is in vivo. Particulars: for L-DOPA-induced dyskinesia (AIMs): Example XIII; for L-DOPA induced AIMs (Lim+Ax+OI): Example X, FIG. 5. Here is the method:
6-OHDA (6-hydroxydopamine) is a neurotoxin that selectively kills dopaminergic and noradrenergic neurons and induces a reduction of dopamine levels in the brain. Administration of L-DOPA to unilaterally 6-OHDA-lesioned rats induces abnormal involuntary movements (ATMs). These are axial, limb and oral movements that occur only on the body side that is […] to the lesion.
DA-denervating lesions are performed by unilateral injection of 6-OHDA in the ascending nigrostriatal pathway. Rats were anesthetized with pentobarbital sodium 40 mg/kg (i.p.) and positioned in a stereotactic frame. 6-OHDA is injected into the right ascending DA bundle at the following coordinates (in mm) relative to bregma and dural surface: (1) toothbar position −2.3, A=−4.4, L=1.2, V=7.8, (7.5 ug 6-OHDA), (2) toothbar position +3.4, A=−4.0, L=0.8, V=8.0 mm (6 ug 6-OHDA). The neurotoxin injections are performed at a rate of 1 ul/min, and the injection cannula is left in place for an additional 2-3 min thereafter. Two weeks after surgery rats with nearly complete (>90%) lesions are selected by means of an amphetamine-induced rotation test. The animals are placed in plastic Perspex bowls (30 cm in diameter) and the rotational behavior (360° turns) is recorded by an automated rotometer for 90 min after the i.p. injection of 2.5 mg/kg d-amphetamine sulphate. […] Animals are then allocated into two well-matched sub-groups (according to the amphetamine rotation) and receive daily treatment as described below.
L-DOPA methyl ester (Sigma-Aldrich, Germany) is given at the dose of 6 mg/kg, combined with 15 mg/kg of benserazide HCl (Sigma-Aldrich, Germany). […] The selected rats are allocated groups of 9-12 animals each, which are balanced with the respect to AIM severity. The animals are then treated with the drug and drug combinations as described below.
AIMs ratings are performed by an investigator who was kept unaware of the pharmacological treatment administered to each rat (experimentally blinded). […] The AIM's are classified into four subtypes:
(A) axial AIMs, i.e., dystonic or choreiform torsion of the trunk and neck towards the side contralateral to the lesion. In the mild cases: lateral flexion of the neck or torsional movements of the upper trunk towards the side contralateral to the lesion. With repeated injection of L-DOPA, this movement may develop into a pronounced and continuous dystonia-like axial torsion. (B) limb AIMs, i.e., jerky and/or dystonic movements of the forelimb contralateral to the lesion. In mild cases: hyperkinetic, jerky stepping movements of the forelimb contralateral to the lesion, or small circular movements of the forelimb to and from the snout. As the severity of dyskinesia increases (which usually occurs with repeated administration of L-DOPA), the abnormal movements increase in amplitude, and assume mixed dystonic and hyperkinetic features. Dystonic movements are caused by sustained co-contraction of agonist/antagonist muscles; they are slow and force a body segment into unnatural positions. Hyperkinetic movements are fast and irregular in speed and direction. […] (C) orolingual AIMs, i.e., twitching of orofacial muscles, and bursts of empty masticatory movements with protrusion of the tongue towards the side contralateral to the lesion. This form of dyskinesia affects facial, tongue, and masticatory muscles. It is recognizable as bursts of empty masticatory movements, accompanied to a variable degree by jaw opening, lateral translocations of the jaw, twitching of facial muscles, and protrusion of the tongue towards the side contralateral to the lesion. […] Each of the four subtypes are scored on a severity scale from 0 to 4, where 0=absent, 1=present during less than half of the observation time, 2=present for more than half of the observation time, 3=present all the time but suppressible by external stimuli, and 4=present all the time and not suppressible by external stimuli.

A further series relates to naïve rats. The series can be described thus: Open field test (Example VI). The settings on record: pentobarbital 15 mg/kg i.p. 30 min before test, positive control; FIG. 3. The format is in vivo, rat. The procedure: The open field test was used to determine the effects of drug on locomotor activity. Rats were put in open-field chambers (dimensions 40 cm×40 cm×40 cm) 30 minutes after dosing. After a 15 minutes habituation, locomotion were recorded and analysed by Enthovision Video Tracking Software (Noldus Information Technology, Netherlands) for 60 minutes. All locomotor activities were done during dark phase and to eliminate olfactory cues, the arena was thoroughly cleaned with 70% v/v ethanol between each test.
Group setting for compound tests: Vehicle: Saline, i.p., 30 min before test, n=10 Positive control: Pentobarbital 15 mg/kg, i.p. 30 min before test, n=10
Zolmitriptan 3 mg/kg, i.p. 5 min before buspirone Buspirone 1 mg/kg, i.p. 30 min before test, n=10
Statistical analysis: The total locomotor activity is expressed as total moved distance (cm) and average velocity (cm/s) during 60 minutes. The data were analysed using One-Way ANOVA and the Tukey post-hoc test. The locomotor activity in six time point is expressed as moved distance (cm) and average velocity (cm/s) every 10 minutes. The data were analysed using One-Way ANOVA and the Tukey post-hoc test in each time point.

The test system of a further series is Sprague-Dawley (SD) rats. Kind of series: Rotarod test (Example V). The format is in vivo, rat. Particulars: pentobarbital 15 mg/kg i.p. 30 min before test, positive control; FIG. 2. Here is the method: In brief, the animals (30 SD male rats (180-220 g, bred in house, originally from SLAC Laboratory Animal Co. Ltd) at 9-week of age) were trained twice a day for a 3-day period. […] Each training trial was ended if the animal fell off or grips the device and spun around for two consecutive revolutions. The time that rat stayed on the Rotarod was recorded. The staying duration recorded at last training trail was used as baseline. Rats were grouped according a randomly distribution of baseline.
For the test session on the fourth day, the rats were evaluated on the Rotarod with the same setting as above at 30 min after dosing. The rats were dosed with drugs as described below. Dosing and Rotarod measurement were conducted by two scientists separately. Pentobarbital (15 mg/kg. i.p.) was used a as a positive control.
Vehicle: Saline, i.p., 30 min before test, n=10 Positive control: Pentobarbital 15 mg/kg, i.p. 30 min before test, n=10
The data were analyzed using One-Way ANOVA and the Tukey post-hoc test.

A further series deals with Huntington's disease. Particulars: one patient suffering from Huntington's disease; cited from earlier work.
In the next series the test system is LID. Particulars: cited from earlier work.

Consider `N[C@@H](Cc1ccc(O)c(O)c1)C(=O)O` [L-DOPA, 3,4-dihydroxyphenylalanine], for which the results for the “average percentage of adjusting steps (impaired paw to intact paw)” value in series [1] (first study) and in series [1] (second study) were 77.8% and 77.7%, respectively. The “6-OHDA induced akinesia, forelimb use” value in series [1] (first study, acute L-DOPA 3 mg/kg with 15 mg/kg benserazide) is “alleviated 6-OHDA induced akinesia by increasing the forelimb use”. Further, the forelimb use result in series [1] (second study, L-DOPA 3 mg/kg with 15 mg/kg benserazide HCl) was “significantly increase the forelimb use”.
As to `O=C1CC2(CCCC2)CC(=O)N1CCCCN1CCN(c2ncccn2)CC1` [buspirone, 8-[4-(4-pyrimidin-2-ylpiperazin-1-yl)butyl]-8-azaspiro[4.5]decane-7,9-dione], in the series with Parkinson's disease (100 mg/day), the disability ratings result was “significant worsening of disability ratings” and the dyskinesia result was “reduced dyskinesia”. In addition, the “effects on Parkinson's disease or dyskinesia” value in the series on Parkinson's disease (10-60 mg/day) was “did not have any effects on Parkinson's disease or dyskinesia”. Further, in series [2] (Example IV, FIG. 1, buspirone 1 mg/kg i.p. given alone), the “L-DOPA-induced AIM (Total AIMs)” value was “only partly reduced AIM”. The “L-DOPA-induced AIM (Total AIMs)” value in series [2] (Example VII, FIG. 4, buspirone 0.5 mg/kg i.p. given alone) is “only partly reduced AIM”. The “L-DOPA-induced dyskinesia (AIMs)” value in series [2] (buspirone 0.25 and 0.5 mg/kg s.c. 25 min before test) was “significantly reduced L-DOPA-induced dyskinesia”.
`CCCC(C)C1(CC)C(=O)NC(=O)NC1=O` (stereo not shown) [pentobarbital]: in the series on naïve rats, the “open field locomotor activity (total move distance)” value is on record as “significantly reduced motor performance”. Moreover, the “rotarod performance (time on the rod)” value with Sprague-Dawley (SD) rats is “significantly reduced time spend on the rotarod”.
As for `O=C1[C@H]2CCCC[C@H]2C(=O)N1CCCCN1CCN(c2nsc3ccccc23)CC1` [perospirone, (3aR, 7aS)-2-{4-[4-(1,2-benzisothiazol-3-yl)piperazin-1-yl]butyl}hexahydro-1H-isoindole-1,3(2H)-dione], the involuntary movement entry with Huntington's disease is on record as “could reduce involuntary movement”.
With `Fc1ccc(-c2cncc(CNC[C@H]3CCc4ccccc4O3)c2)cc1` [sarizotan, 1-[(2R)-3,4-dihydro-2H-chromen-2-yl]-N-([5-(4-fluorophenyl)pyridin-3-yl]methyl)methanamine], in the series on LID (phase 2A study and open labeled study), the LID entry is on record as “reduced LID”. Moreover, the “LID, effect compared to placebo” value in the series on LID (several large phase 2b studies) is reported as “no significant effects”.
Consider `O=C1[C@@H]2[C@@H]3CC[C@@H](C3)[C@@H]2C(=O)N1CCCCN1CCN(c2ncccn2)CC1` [tandospirone, (1R,2R,6S,7S)-4-{4-[4-(pyrimidin-2-yl)piperazin-1-yl]butyl}-4-azatricyclo[5.2.1.02,6]decane-3,5-dione], for which the “L-DOPA induced AIMs (Lim+Ax+OI)” value in series [2] (tandospirone 1 mg/kg i.p. 30 min before test) is “partially and briefly reduce AIMs”; in series [2] (tandospirone 2 mg/kg i.p. 30 min before test), “partially and briefly reduce AIMs”. For the same compound, in series [2] (tandospirone 1 and 2 mg/kg i.p. 25 min before test), the “L-DOPA-induced dyskinesia (AIMs)” value is “significantly reduced L-DOPA-induced dyskinesia”.
Regarding `CN(C)CCc1c[nH]c2ccc(C[C@H]3COC(=O)N3)cc12` [zolmitriptan, (S)-4-({3-[2-(dimethylamino)ethyl]-1H-indol-5-yl}methyl)-1,3-oxazolidin-2-one], the “L-DOPA-induced AIM (Total AIMs)” value in series [2] (Example IV, FIG. 1, zolmitriptan 10 mg/kg i.p. given alone) is “did not reduce AIM”.
